Here are results for 28 compounds from patent US8134015B2, “Compound inhibiting in vivo phosphorous transport and medicine containing the same” (Kyowa Hakko Kirin Co., Ltd., priority 2003, dated 2012).

One test concerns the target T1, rat NaPi-2b (Rattus norvegicus, UniProt Q9JJ09).
T1 construct: expressed in transfected cells; host or cells: Xenopus oocytes injected with cRNA
T1 sequence (Q9JJ09 1-695): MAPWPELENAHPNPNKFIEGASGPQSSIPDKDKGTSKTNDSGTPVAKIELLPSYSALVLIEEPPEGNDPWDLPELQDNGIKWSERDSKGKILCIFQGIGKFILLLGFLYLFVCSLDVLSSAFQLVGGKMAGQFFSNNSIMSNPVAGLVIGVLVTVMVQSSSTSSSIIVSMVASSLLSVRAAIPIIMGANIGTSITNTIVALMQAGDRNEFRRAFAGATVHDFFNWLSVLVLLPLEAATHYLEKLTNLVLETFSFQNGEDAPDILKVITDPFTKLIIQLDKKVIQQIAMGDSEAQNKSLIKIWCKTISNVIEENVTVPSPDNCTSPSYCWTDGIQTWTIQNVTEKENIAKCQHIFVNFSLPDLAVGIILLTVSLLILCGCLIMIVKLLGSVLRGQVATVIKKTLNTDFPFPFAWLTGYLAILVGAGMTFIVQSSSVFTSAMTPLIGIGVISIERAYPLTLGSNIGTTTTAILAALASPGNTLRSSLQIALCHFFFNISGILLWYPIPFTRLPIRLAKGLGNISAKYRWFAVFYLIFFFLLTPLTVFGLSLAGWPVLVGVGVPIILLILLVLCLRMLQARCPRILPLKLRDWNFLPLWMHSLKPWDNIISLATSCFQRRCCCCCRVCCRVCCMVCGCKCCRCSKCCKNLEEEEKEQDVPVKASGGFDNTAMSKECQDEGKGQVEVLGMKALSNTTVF
The test is described as follows: Sodium-dependent phosphate uptake of Xenopus oocytes which expressed NaPi-2b (32P). It is filed as cell-based. Conditions: Xenopus oocytes expressing rat NaPi-2b, 32P radioactive phosphorus; read-out: IC50 (phosphate uptake inhibitory activity). In a few lines:
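Percent inhibition at 300 μM and 100 μM comes from the same inhibition curve of 32P uptake. Assay used oocytes expressing rat NaPi-2b after 2 days of culture.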
Turning to `Cc1ccc(CNNC(=O)c2c(C)csc2NC(=O)c2cccc(CSCCCO)c2)cc1C` [Compound 645, N-{3-[N′-(3,4-Dimethyl-benzyl)-hydrazinocarbonyl]-4-methyl-thiophen-2-yl}-3-(3-hydroxy-propylsulfanylmethyl)-benzamide], the half-inhibitory concentration (IC50) is < 3 µM.
Still for that read-out and setting: with `O=C(Nc1ccc(Br)cc1C(=O)N/N=C/c1ccc(F)cc1)c1ccc(CNCCN2CCOCC2)cc1` [Compound 284, N-[4-Bromo-2-(4-fluoro-benzylidene-hydrazinocarbonyl)-phenyl]-4-[(2-morpholin-4-yl-ethylamino)-methyl]-benzamide] the figure was 26.9 µM.
As for `CCN(CC)CCN(C)Cc1cccc(C(=O)Nc2cc(OCCOC)c(OCCOC)cc2C(=O)N/N=C/c2cccc(F)c2)c1` [Compound 1028, 3-{[(2-Diethylamino-ethyl)-methyl-amino]-methyl}-N-[2-(3-fluoro-benzylidene-hydrazinocarbonyl)-4,5-bis-(2-methoxy-ethoxy)-phenyl]-benzamide], the 50% inhibitory concentration (IC50) came out at 29.1 µM.
Same read-out and setting: with `O=C(Nc1ccc(Cl)cc1C(=O)N/N=C/c1ccc(Cl)c(C(F)(F)F)c1)c1cccc(CS(=O)(=O)Cc2ccco2)c1` [Compound 688, N-[4-Chloro-2-(4-chloro-3-trifluoromethyl-benzylidene-hydrazinocarbonyl)-phenyl]-3-(furan-2-ylmethanesulfonylmethyl)-benzamide] the figure was < 3 µM; with `CCN(CC)CCN(C)Cc1cccc(C(=O)Nc2ccc(I)cc2C(=O)N/N=C/c2ccc(F)cc2)c1` [Compound 473, 3-{[(2-Diethylamino-ethyl)-methyl-amino]-methyl}-N-[2-(4-fluoro-benzylidene-hydrazinocarbonyl)-4-iodo-phenyl]-benzamide], < 3 µM; with `O=C(Nc1ccccc1C(=O)N/N=C/c1ccc(F)cc1)c1ccc(F)cc1` [Compound 77, 4-Fluoro-N-[2-(4-fluoro-benzylidene-hydrazinocarbonyl)-phenyl]-benzamide], 3.01 µM.
As for `O=C(Nc1ccccc1C(=O)N/N=C/c1ccc(F)cc1)c1ccncc1` [Compound 135, N-[2-(4-Fluoro-benzylidene-hydrazinocarbonyl)-phenyl]-isonicotinamide], the IC50 came out at 3.74 µM.
Turning to `COc1ccc(/C=N/NC(=O)c2cc(Cl)ccc2NC(=O)c2ccc(OC)c(OC)c2)cc1Br` [Compound 98, N-[2-(3-Bromo-4-methoxy-benzylidene-hydrazinocarbonyl)-4-chloro-phenyl]-3,4-dimethoxy-benzamide], the half-inhibitory concentration (IC50) was found to be 0.62 µM.
The same measure, in the same setting: the value for `COc1cccc(/C=N/NC(=O)c2cc(Br)ccc2NC(=O)c2ccc(CN3CCC(CCO)CC3)cc2)c1` [Compound 746, N-[4-Bromo-2-(3-methoxy-benzylidene-hydrazinocarbonyl)-phenyl]-4-[4-(2-hydroxy-ethyl)-piperidin-1-ylmethyl]-benzamide] was 16.8 µM; that for `O=C(Nc1ccc(Cl)cc1C(=O)N/N=C/c1ccc(Cl)c(C(F)(F)F)c1)c1ccncc1` [Compound 194, N-[4-Chloro-2-(4-chloro-3-trifluoromethyl-benzylidene-hydrazinocarbonyl)-phenyl]-isonicotinamide] was 7.36 µM; that for `COc1cc(/C=N/NC(=O)c2cc(N3CCCCC3)ccc2NC(=O)c2ccc(OC)c(OC)c2)ccc1O` [Compound 938, N-[2-(4-Hydroxy-3-methoxy-benzylidene-hydrazinocarbonyl)-4-piperidin-1-yl-phenyl]-3,4-dimethoxy-benzamide] was 1.41 µM.
Same read-out and setting: the value for `CC(O)CN(Cc1cccc(C(=O)Nc2cc3ccccc3cc2C(=O)N/N=C/c2cccc(F)c2)c1)CC(C)O` (stereo not shown) [Compound 959, 3-{[Bis-(2-hydroxy-propyl)-amino]-methyl}-N-[3-(3-fluoro-benzylidene-hydrazinocarbonyl)-naphthalen-2-yl]-benzamide] was < 1 µM.
Still for that read-out and setting: with `O=C(Nc1ccc(Cl)cc1C(=O)N/N=C/c1cccc(O)c1)c1cccc(CN2CCC(N3CCCCC3)CC2)c1` [Compound 376, 3-[1,4′]Bipiperidinyl-1′-ylmethyl-N-[4-chloro-2-(3-hydroxy-benzylidene-hydrazinocarbonyl)-phenyl]-benzamide] the figure was 21 µM; with `COc1ccc(/C=N/NC(=O)c2cc(N3CCCCC3)ccc2NC(=O)c2cccc(CN3CCC(O)CC3)c2)cc1` [Compound 875, 3-(4-Hydroxy-piperidin-1-ylmethyl)-N-[2-(4-methoxy-benzylidene-hydrazinocarbonyl)-4-piperidin-1-yl-phenyl]-benzamide], 5.2 µM; with `O=C(Nc1ccc(I)cc1C(=O)N/N=C/c1ccc(Cl)c(C(F)(F)F)c1)c1cccc(CN2CCC(N3CCCCC3)CC2)c1` [Compound 487, 3-[1,4′]Bipiperidinyl-1′-ylmethyl-N-[2-(4-chloro-3-trifluoromethyl-benzylidene-hydrazinocarbonyl)-4-iodo-phenyl]-benzamide], < 3 µM.
Regarding `CN(CCO)Cc1cccc(C(=O)Nc2ccc(Cl)cc2C(=O)N/N=C/c2ccc(O)cc2)c1` [Compound 403, N-[4-Chloro-2-(4-hydroxy-benzylidene-hydrazinocarbonyl)-phenyl]-3-{[(2-hydroxy-ethyl)-methyl-amino]-methyl}-benzamide], the IC50 was 26.7 µM.
On the same count and under the same terms, the value for `O=C(Nc1ccccc1C(=O)N/N=C/c1cccc(F)c1)c1ccc(F)cc1` [Compound 76, 4-Fluoro-N-[2-(3-fluoro-benzylidene-hydrazinocarbonyl)-phenyl]-benzamide] was 13.2 µM; that for `O=C(Nc1ccc(Cl)cc1C(=O)N/N=C/c1ccc(Cl)c(C(F)(F)F)c1)c1ccccn1` [Compound 364, Pyridin-2-carboxylic acid [4-chloro-2-(4-chloro-3-trifluoromethyl-benzylidene-hydrazinocarbonyl)-phenyl]-amide] was < 1 µM; that for `CCN(CC)CCN(C)Cc1cccc(-c2nc3sc4c(c3c(=O)n2/N=C/c2ccc(OC)cc2)CCCC4)c1` [Compound 675, 2-(3-{[(2-Diethylamino-ethyl)-methyl-amino]-methyl}-phenyl)-3-[(4-methoxy-benzylidene-)-amino]-5,6,7,8-tetrahydro-3H-benzo[4,5]thieno[2,3-d]pyrimidin-4-one] was < 3 µM.
Still for that read-out and setting: with `CCN(CC)CCN(CCN(CC)CC)Cc1cccc(C(=O)Nc2ccc(N3CCCCC3)cc2C(=O)N/N=C/c2ccc(OC)cc2)c1` [Compound 910, 3-{[Bis-(2-diethylamino-ethyl)-amino]-methyl}-N-[2-(4-methoxy-benzylidene-hydrazinocarbonyl)-4-piperidin-1-yl-phenyl]-benzamide] the figure was 7.81 µM.
The same measure, in the same setting: the value for `Cc1ccc(/C=N/NC(=O)c2cscc2NC(=O)c2cccc(CN(CC(C)O)CC(C)O)c2)cc1` (stereo not shown) [Compound 976, 3-{[Bis-(2-hydroxy-propyl)-amino]-methyl}-N-[4-(4-methyl-benzylidene-hydrazinocarbonyl)-thiophen-3-yl]-benzamide] was 10.7 µM; that for `Cc1cccc(/C=N/NC(=O)c2ccccc2NC(=O)c2ccncc2)c1` [Compound 136, N-[2-(3-Methyl-benzylidene-hydrazinocarbonyl)-phenyl]-isonicotinamide] was 4.52 µM.
As to `COc1ccc(C(=O)Nc2ccc(Br)cc2C(=O)N/N=C/C=C/c2ccccc2)cc1OC` [Compound 13, N-[4-Bromo-2-(3-phenyl-allylidene-hydrazinocarbonyl)-phenyl]-3,4-dimethoxy-benzamide], the IC50 is 9.22 µM.
Turning to `Cc1ccc(/C=N/NC(=O)c2cscc2NC(=O)c2cccc(CN3CCN(CCO)CC3)c2)cc1C` [Compound 982, N-[4-(3,4-Dimethyl-benzylidene-hydrazinocarbonyl)-thiophen-3-yl]-3-[4-(2-hydroxy-ethyl)-piperazin-1-ylmethyl]-benzamide], the IC50 came to 8.05 µM.
As to `O=C(Nc1sccc1C(=O)N/N=C/c1ccc(F)cc1)c1cccc(CSCCCO)c1` [Compound 660, N-[3-(4-Fluoro-benzylidene-hydrazinocarbonyl)-thiophen-2-yl]-3-(3-hydroxy-propylsulfanylmethyl)-benzamide], the IC50 was 18.7 µM.

The same test, now with this note: phosphate uptake, oocytes expressing rat NaPi-2b; 300 μM, determined from inhibition curve.
Regarding `COc1ccc(/C=N/NC(=O)c2scc(C)c2NC(=O)c2cccc(CN3CCC(O)CC3)c2)cc1` [Compound 543, 3-(4-Hydroxy-piperidin-1-ylmethyl)-N-[2-(4-methoxy-benzylidene-hydrazinocarbonyl)-4-methyl-thiophen-3-yl]-benzamide], the inhibition at 300 µM is 30.2%.
On the same count and under the same terms, the value for `Cc1cccc(C=NNC(=O)c2cc(Br)ccc2NC(=O)c2ccc(C(C)(C)C)cc2)c1` [Compound 248, N-[4-Bromo-2-(3-methyl-benzylidene-hydrazinocarbonyl)-phenyl]-4-tert-butyl-benzamide] was 30.3%; that for `COc1cccc(/C=N/NC(=O)c2cc(Br)ccc2NC(=O)c2ccc(CNCCN3CCOCC3)cc2)c1` [Compound 716, N-[4-Bromo-2-(3-methoxy-benzylidene-hydrazinocarbonyl)-phenyl]-4-[(2-morpholin-4-yl-ethylamino)-methyl]-benzamide] was 85.8%.

The IC50 is the midpoint of a concentration-inhibition curve. A word on the inhibition: it is the percentage by which the read-out fell short of the control. Low values mean a response near the control, high ones a response far below the control.
